From ChEMBL document CHEMBL2429820, “Synthesis and anticonvulsant activity evaluation of 7-alkoxy-2,4-dihydro-1H-benzo[b][1,2,4]triazolo[4,3-d][1,4]thiazin-1-ones in various murine experimental seizure models” (Med Chem Res, 2013) come the findings set out here.

The test system of data set [1] is Mus musculus. Description: Anticonvulsant activity in KunMing mouse assessed as protection against maximal electroshock-induced seizure at 100 mg/kg, ip after 0.5 hrs. Format: functional, organism-based. Set-up: dose 100 mg/kg. (In general: In the maximal electroshock model the usual endpoint is tonic extension of the hind limbs.)
Data set [2] in a line: Neurotoxicity in ip dosed KunMing mouse assessed as inability of animal to maintain equilibrium on rod for at least 1 min. Conditions: in vivo. Format: toxicity, organism-based.
For data set [3], the system named is Mus musculus. Description: Protective index, ratio of TD50 for ip dosed KunMing mouse to ED50 for ip dosed KunMing mouse. Format: functional.
Data set [4] relates to Mus musculus. Description: Anticonvulsant activity in ip dosed KunMing mouse assessed as protection against maximal electroshock-induced seizure after 0.5 hrs. The format is functional.
In data set [5] the test system is Mus musculus. The data set is described as follows: Anticonvulsant activity against bicuculline-induced seizure in KunMing mouse assessed as tonic seizure level at 30 mg/kg, ip administered 30 mins before bicuculline challenge measured after 30 mins. The format is functional. The note with it: route intraperitoneal.
For data set [6], the system named is Mus musculus. Description: Anticonvulsant activity in KunMing mouse assessed as protection against maximal electroshock-induced seizure at 30 mg/kg, ip after 0.5 hrs. The format is functional, organism-based. More on the design: dose 30 mg/kg.
Data set [7] relates to Mus musculus. The data set is described as follows: Anticonvulsant activity against bicuculline-induced seizure in KunMing mouse assessed as clonic seizure level at 30 mg/kg, ip administered 30 mins before bicuculline challenge measured after 30 mins. Format: functional. The note with it: route intraperitoneal.
Data set [8] concerns Mus musculus. The data set is described as follows: Anticonvulsant activity against bicuculline-induced seizure in KunMing mouse assessed as lethality at 30 mg/kg, ip administered 30 mins before bicuculline challenge measured after 30 mins. The format is functional. Conditions: route intraperitoneal.
Data set [9] deals with Mus musculus. Description: Anticonvulsant activity against 3-mercaptopropionic acid-induced seizure in KunMing mouse assessed as clonic seizure level at 30 mg/kg, ip administered 30 mins before 3-mercaptopropionic acid challenge measured after 30 mins. Format: functional. Conditions: route intraperitoneal.
Data set [10] relates to Mus musculus. Description: Anticonvulsant activity against pentylenetetrazole-induced seizure in KunMing mouse assessed as clonic seizure level at 30 mg/kg, ip administered 30 mins before pentylenetetrazole challenge measured after 30 mins. Format: functional. The note with it: route intraperitoneal.
The subject of data set [11] is Mus musculus. Description: Anticonvulsant activity against pentylenetetrazole-induced seizure in KunMing mouse assessed as lethality at 30 mg/kg, ip administered 30 mins before pentylenetetrazole challenge measured after 30 mins. Format: functional. The note with it: route intraperitoneal.
The test system of data set [12] is Mus musculus. The data set is described as follows: Anticonvulsant activity against 3-mercaptopropionic acid-induced seizure in KunMing mouse assessed as lethality at 30 mg/kg, ip administered 30 mins before 3-mercaptopropionic acid challenge measured after 30 mins. Format: functional. Conditions: route intraperitoneal.
Data set [13] concerns Mus musculus. The data set is described as follows: Anticonvulsant activity against 3-mercaptopropionic acid-induced seizure in KunMing mouse assessed as tonic seizure level at 30 mg/kg, ip administered 30 mins before 3-mercaptopropionic acid challenge measured after 30 mins. Format: functional. The note with it: route intraperitoneal.
For data set [14], the system named is Mus musculus. The data set is described as follows: Anticonvulsant activity against pentylenetetrazole-induced seizure in KunMing mouse assessed as tonic seizure level at 30 mg/kg, ip administered 30 mins before pentylenetetrazole challenge measured after 30 mins. The note with it: route intraperitoneal. Format: functional.
The test system of data set [15] is Mus musculus. The data set is described as follows: Anticonvulsant activity in KunMing mouse assessed as protection against maximal electroshock-induced seizure at 15 mg/kg, ip after 0.5 hrs. More on the design: dose 15 mg/kg. Format: functional, organism-based.
Data set [16] has as its system Mus musculus. The data set is described as follows: Anticonvulsant activity in KunMing mouse assessed as protection against maximal electroshock-induced seizure at 7.5 mg/kg, ip after 0.5 hrs. The format is functional, organism-based. More on the design: dose 7.5 mg/kg.

Active and inactive are the calls of the source. The rule behind the calls is not given here.

In general, TD50 refers to the 50% point of the dose-response relation for the toxic effect studied. By ED50 is commonly meant the dose that gives a 50% effect, or the effect in half of the subjects. Regarding `O=c1[nH]nc2n1-c1ccc(OCc3ccccc3)cc1SC2`, in [1], the outcome was Active. For the same compound, the TD50 at 1 min in [2] is 94.7 mg/kg. In addition, the PI in data set [3] was found to be 7.8. Moreover, in [4], the ED50 was found to be 12.2 mg/kg.

With `O=c1[nH]nc2n1-c1ccc(OCc3ccc(F)cc3)cc1SC2`, the Activity worked out at 10% in [5]; 90% in data set [7]; 30% in [8]; 100% in [9]; 100% in data set [10]; 80% in [11]. The Activity is recorded as 60% in data set [12], 0% in data set [13] and 10% in data set [14]. In addition, the result in data set [6] and in [1] was Active. In addition, the TD50 at 1 min in data set [2] came to 141 mg/kg. Further, the PI in data set [3] amounted to 15.4. Further, the ED50 in data set [4] is 9.2 mg/kg.

In the case of `CCCCCCOc1ccc2c(c1)SCc1n[nH]c(=O)n1-2`, the result in [6], in data set [1] and in data set [15] was Active. Besides, in data set [2], the TD50 at 1 min stood at 89.6 mg/kg. Also, the PI in data set [3] came to 11.3. Further, in data set [4], the ED50 was 7.9 mg/kg.

For the compound `CCOc1ccc2c(c1)SCc1n[nH]c(=O)n1-2`, the result in data set [6] was inactive. Also, the outcome in [1] was Active.

On to `O=c1[nH]nc2n1-c1ccc(OCc3c(Cl)cccc3Cl)cc1SC2`, for which the outcome in data set [15] was inactive.

With `O=c1[nH]nc2n1-c1ccc(OCc3cccc(C(F)(F)F)c3)cc1SC2`, the outcome in data set [6] was inactive.

Regarding `O=c1[nH]nc2n1-c1ccc(OCc3cccc(Cl)c3)cc1SC2`, the result in [1] was Active. The result in data set [15] was inactive.

`O=c1[nH]nc2n1-c1ccc(OCc3cccc(F)c3)cc1SC2`: the outcome in data set [1] was Active. Also, in data set [16], the result was inactive.

`O=c1[nH]nc2n1-c1ccc(OCc3ccc(Cl)cc3)cc1SC2`: the outcome in data set [15] was inactive.

Take `Cc1ccc(COc2ccc3c(c2)SCc2n[nH]c(=O)n2-3)cc1`: the outcome in [6] and in data set [1] was Active. For the same compound, the outcome in [16] was inactive.

Regarding `CCCCCCOc1ccc2c(c1)CCC(=O)N2`, in [3], the PI worked out at 2.4. In addition, the ED50 in data set [4] was determined as 24 mg/kg.

On to `CCCCCCCOc1ccc2c(c1)SCc1n[nH]c(=O)n1-2`, for which the result in [16] was inactive.

Turning to `CCCCCCCCCCCCOc1ccc2c(c1)SCc1n[nH]c(=O)n1-2`, in data set [1], the result was inactive.

As for `O=c1[nH]nc2n1-c1ccc(OCc3ccccc3Cl)cc1SC2`, the outcome in data set [1] was inactive.

Consider `CCCCOc1ccc2c(c1)SCc1n[nH]c(=O)n1-2`, for which the result in data set [6], in [1] and in [15] was Active. The TD50 at 1 min in [2] came to 118 mg/kg. The PI in [3] was 14.9. In addition, the ED50 in [4] stood at 7.9 mg/kg.

As for `CCCCCCCCCCCCCCOc1ccc2c(c1)SCc1n[nH]c(=O)n1-2`, the result in data set [1] was inactive.

Regarding `CCCCCCCCOc1ccc2c(c1)SCc1n[nH]c(=O)n1-2`, in data set [1], the outcome was inactive.

In the case of `NC(=O)N1c2ccccc2C=Cc2ccccc21` [CARBAMAZEPINE], the Activity is 0% in [5]; 100% in data set [7]; 60% in data set [8]; 100% in data set [9]; 100% in data set [10]; 10% in [11]. Further, the Activity in [13] and in [14] was 0% in each case. The PI in [3] stood at 6.4. Besides, the ED50 in data set [4] was 11.8 mg/kg.

Regarding `CCCCCOc1ccc2c(c1)SCC(=O)N2`, the TD50 at 1 min in data set [2] stood at 306 mg/kg. Further, the PI in data set [3] stood at 8.9. Further, the ED50 in [4] stood at 34.1 mg/kg.

For `CCCOc1ccc2c(c1)SCc1n[nH]c(=O)n1-2`, the outcome in [6] and in [1] was Active. Also, the TD50 at 1 min in [2] came to 84.9 mg/kg. In addition, the PI in data set [3] was 7. The ED50 in data set [4] was 12.2 mg/kg.

Take `O=c1[nH]nc2n1-c1ccc(OCc3ccccc3F)cc1SC2`: in [1], the outcome was Active. For the same compound, the result in data set [16] was inactive.

For the compound `CCCCCOc1ccc2c(c1)SCc1n[nH]c(=O)n1-2`, the result in data set [6], in [1] and in data set [15] was Active. Besides, the TD50 at 1 min in data set [2] was determined as 81.8 mg/kg. The PI in data set [3] worked out at 11.5. Further, in [4], the ED50 came out at 7.1 mg/kg.

With `N#Cc1ccccc1COc1ccc2c(c1)SCc1n[nH]c(=O)n1-2`, the result in data set [1] was inactive.
